Two compounds from ChEMBL document CHEMBL2029275, “Structure-activity relationship of a series of non peptidic RGD integrin antagonists targeting α5β1: part 2” (Bioorg Med Chem Lett, 2012) can be followed below.

SMILES strings stand for the structures. Bounds are passed on as bounds.

In data set [1] the target is T1, Integrin alpha-5/beta-1 (Homo sapiens, UniProt P05556+P08648). The data set is described as follows: Binding affinity to integrin alpha5beta1. The data set is classed as protein-complex assay.
Data set [2] has as its target T1, Integrin alpha-5/beta-1. The data set can be described thus: Antagonist activity at integrin alpha5beta1 in human K562 cells assessed as inhibition of cell adhesion. The format is functional, cell-based.
In data set [3] the target is T1, Integrin alpha-5/beta-1. The data set can be described thus: Antagonist activity at integrin alpha5beta1 in human K562 cells assessed as inhibition of cell adhesion in presence of human serum albumin. The format is functional, cell-based.
A further data set is filed under the species Homo sapiens. The data set is described as follows: Free drug level in human. The format is ADME, organism-based. Particulars: in vivo.
The species named for the next data set is Rattus norvegicus. The data set is described as follows: Free drug level in rat. The data set is classed as ADME, organism-based. The conditions noted are these: in vivo.
A further data set concerns the target Integrin alpha-V/beta-3 (Homo sapiens, UniProt P05106+P06756). The data set can be described thus: Antagonist activity at integrin alphaVbeta3 in human A375M cells assessed as cell adhesion to fibrinogen in presence of Mg2+. The format is functional, cell-based.
Data set [4] addresses Fibronectin receptor (Integrin alpha-5/beta-1 and alpha-V/beta-3) (Homo sapiens, UniProt P05106+P05556+P06756+P08648). The data set can be described thus: Antagonist activity at integrin alphavbeta3alpha5beta1 in human A375M cells assessed as inhibition of cell adhesion to fibronectin in presence of Mg2+. The data set is classed as functional, cell-based.
Data set [5] concerns the target T1, Integrin alpha-5/beta-1. The data set can be described thus: Antagonist activity at integrin alpha5beta1 in human A375M cells assessed as inhibition of cell adhesion in presence of Mg2+ and MK-0429. The data set is classed as functional, cell-based.
A further data set concerns A375M. The data set can be described thus: Selectivity ratio of IC50 for integrin alphavbeta3alpha5beta1-mediated human A375M cells adhesion to fibronectin in absence of MK-0429 to IC50 for integrin alpha5beta1-mediated human A375M cells adhesion to fibronectin in presence of MK-0429. The data set is classed as cell-based.

T1 sequence (P05556 21-798 limits assumed): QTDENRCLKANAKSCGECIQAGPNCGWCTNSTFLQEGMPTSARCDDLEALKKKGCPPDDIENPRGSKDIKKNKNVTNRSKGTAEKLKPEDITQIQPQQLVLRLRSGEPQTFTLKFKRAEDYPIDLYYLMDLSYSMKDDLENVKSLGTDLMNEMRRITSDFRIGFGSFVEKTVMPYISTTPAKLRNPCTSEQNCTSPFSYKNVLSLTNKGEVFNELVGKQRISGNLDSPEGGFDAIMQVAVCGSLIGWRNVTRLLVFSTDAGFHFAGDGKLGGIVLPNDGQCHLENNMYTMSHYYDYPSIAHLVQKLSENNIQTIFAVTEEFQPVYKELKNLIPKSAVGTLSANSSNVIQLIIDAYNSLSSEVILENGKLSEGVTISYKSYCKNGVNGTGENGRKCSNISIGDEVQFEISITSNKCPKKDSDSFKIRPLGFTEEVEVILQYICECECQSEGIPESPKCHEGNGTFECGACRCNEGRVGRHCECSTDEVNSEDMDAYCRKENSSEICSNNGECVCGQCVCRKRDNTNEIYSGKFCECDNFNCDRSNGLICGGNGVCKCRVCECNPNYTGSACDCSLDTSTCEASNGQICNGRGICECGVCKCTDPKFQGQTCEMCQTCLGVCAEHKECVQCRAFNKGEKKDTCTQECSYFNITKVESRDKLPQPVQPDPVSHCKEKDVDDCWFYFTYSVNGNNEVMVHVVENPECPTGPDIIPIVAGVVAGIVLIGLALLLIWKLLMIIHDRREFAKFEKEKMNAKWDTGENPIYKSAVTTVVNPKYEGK
T1 sequence (P08648 42-894 limits assumed): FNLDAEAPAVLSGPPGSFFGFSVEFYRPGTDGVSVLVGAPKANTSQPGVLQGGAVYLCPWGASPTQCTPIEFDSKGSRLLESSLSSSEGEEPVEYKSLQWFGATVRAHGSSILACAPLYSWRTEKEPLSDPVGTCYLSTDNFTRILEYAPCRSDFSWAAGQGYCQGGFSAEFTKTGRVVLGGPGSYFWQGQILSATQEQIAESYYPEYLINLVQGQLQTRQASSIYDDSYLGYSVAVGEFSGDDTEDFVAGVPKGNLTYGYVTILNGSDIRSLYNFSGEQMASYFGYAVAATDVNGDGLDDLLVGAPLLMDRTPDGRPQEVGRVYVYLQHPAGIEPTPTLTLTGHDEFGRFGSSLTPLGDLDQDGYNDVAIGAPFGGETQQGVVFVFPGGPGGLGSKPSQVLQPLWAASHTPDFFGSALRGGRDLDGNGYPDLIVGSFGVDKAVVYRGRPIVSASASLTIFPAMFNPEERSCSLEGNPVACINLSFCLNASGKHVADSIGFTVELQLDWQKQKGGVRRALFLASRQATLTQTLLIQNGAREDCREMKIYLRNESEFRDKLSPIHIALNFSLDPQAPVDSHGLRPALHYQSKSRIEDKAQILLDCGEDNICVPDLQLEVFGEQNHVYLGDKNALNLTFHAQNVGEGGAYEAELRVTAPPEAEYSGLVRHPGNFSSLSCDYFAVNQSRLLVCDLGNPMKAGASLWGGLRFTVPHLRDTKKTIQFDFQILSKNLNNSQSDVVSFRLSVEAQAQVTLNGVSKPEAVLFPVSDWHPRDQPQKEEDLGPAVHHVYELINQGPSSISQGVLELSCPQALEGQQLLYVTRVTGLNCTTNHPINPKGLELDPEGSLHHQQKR
T1 sequence (P08648 895-1049 limits assumed): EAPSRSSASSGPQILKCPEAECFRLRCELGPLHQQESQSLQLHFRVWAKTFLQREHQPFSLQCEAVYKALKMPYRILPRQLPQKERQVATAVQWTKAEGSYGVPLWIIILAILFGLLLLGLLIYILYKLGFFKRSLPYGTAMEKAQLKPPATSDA
Sequence of Integrin alpha-V/beta-3 (P05106 27-788 limits assumed): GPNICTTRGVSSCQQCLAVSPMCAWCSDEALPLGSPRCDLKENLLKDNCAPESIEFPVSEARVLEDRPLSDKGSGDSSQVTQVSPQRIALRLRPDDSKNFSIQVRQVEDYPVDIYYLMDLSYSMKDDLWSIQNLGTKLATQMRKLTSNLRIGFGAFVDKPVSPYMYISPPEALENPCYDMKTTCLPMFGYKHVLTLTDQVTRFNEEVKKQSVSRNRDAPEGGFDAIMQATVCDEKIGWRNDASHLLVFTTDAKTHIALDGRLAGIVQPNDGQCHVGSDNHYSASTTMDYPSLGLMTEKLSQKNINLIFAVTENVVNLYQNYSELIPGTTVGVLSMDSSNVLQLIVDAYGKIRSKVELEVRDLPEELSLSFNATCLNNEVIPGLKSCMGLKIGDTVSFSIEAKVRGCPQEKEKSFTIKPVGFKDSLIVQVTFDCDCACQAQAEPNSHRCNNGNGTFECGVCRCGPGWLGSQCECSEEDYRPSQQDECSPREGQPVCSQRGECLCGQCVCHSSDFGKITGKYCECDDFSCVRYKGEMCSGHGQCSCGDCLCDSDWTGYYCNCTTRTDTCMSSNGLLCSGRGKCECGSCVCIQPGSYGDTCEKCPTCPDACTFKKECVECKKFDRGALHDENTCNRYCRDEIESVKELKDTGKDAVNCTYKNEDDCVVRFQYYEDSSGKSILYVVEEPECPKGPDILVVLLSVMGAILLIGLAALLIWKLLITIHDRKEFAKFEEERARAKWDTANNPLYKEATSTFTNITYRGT
Sequence of Integrin alpha-V/beta-3 (P06756 31-889 limits assumed): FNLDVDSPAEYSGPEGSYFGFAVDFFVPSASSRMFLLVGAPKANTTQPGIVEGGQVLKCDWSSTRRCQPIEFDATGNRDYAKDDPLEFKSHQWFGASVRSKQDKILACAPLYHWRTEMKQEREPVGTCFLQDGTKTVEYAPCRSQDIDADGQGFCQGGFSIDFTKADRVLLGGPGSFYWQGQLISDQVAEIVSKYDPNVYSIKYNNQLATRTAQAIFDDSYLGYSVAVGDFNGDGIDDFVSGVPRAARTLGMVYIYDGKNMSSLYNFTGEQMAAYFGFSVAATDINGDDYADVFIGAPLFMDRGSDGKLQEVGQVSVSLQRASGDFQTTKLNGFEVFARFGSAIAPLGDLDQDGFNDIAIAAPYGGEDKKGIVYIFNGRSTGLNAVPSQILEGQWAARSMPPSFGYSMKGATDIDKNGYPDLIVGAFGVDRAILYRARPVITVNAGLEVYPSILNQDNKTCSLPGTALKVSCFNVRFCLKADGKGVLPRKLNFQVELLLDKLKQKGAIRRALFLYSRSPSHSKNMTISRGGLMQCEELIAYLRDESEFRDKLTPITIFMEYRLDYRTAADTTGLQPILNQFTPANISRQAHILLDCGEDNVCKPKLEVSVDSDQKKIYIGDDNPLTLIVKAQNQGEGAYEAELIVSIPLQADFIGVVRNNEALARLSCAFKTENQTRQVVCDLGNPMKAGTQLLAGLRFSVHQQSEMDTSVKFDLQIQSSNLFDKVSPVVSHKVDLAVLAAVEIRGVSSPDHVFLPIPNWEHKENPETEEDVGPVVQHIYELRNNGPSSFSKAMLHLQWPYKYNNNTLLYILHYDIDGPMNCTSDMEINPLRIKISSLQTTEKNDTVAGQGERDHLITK
Sequence of Integrin alpha-V/beta-3 (P06756 891-1048 limits assumed): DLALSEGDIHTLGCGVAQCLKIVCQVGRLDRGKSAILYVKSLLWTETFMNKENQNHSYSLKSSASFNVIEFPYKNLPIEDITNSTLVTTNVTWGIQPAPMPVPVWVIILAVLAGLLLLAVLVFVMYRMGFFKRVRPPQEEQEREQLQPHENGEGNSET

`CNc1cccc(CCOc2ccc(C[C@H](NC(=O)c3ccccc3Cl)C(=O)O)cc2)n1`: the IC50 at Integrin alpha-5/beta-1 [1] is 3 nM; at Integrin alpha-5/beta-1 [2], 42 nM; at Integrin alpha-5/beta-1 [3], above 26000 nM; at Integrin alpha-V/beta-3, 520 nM; in data set [4] it was 540 nM; at Integrin alpha-5/beta-1 [5] it was 240 nM. Also, the “Drug uptake(free)” value worked out at 0.4% in the data set listed under Homo sapiens and 0.5% in the data set filed under Rattus norvegicus. In addition, the Ratio IC50 in the data set with A375M is 2.2.

As to `CNc1cccc(CCOc2ccc(C[C@H](NC(=O)c3c(Cl)cccc3Cl)C(=O)O)cc2)n1`, the IC50 on Integrin alpha-5/beta-1 [1] was below 1 nM; at Integrin alpha-5/beta-1 [2], 7 nM; at Integrin alpha-5/beta-1 [3], 170 nM; on Integrin alpha-V/beta-3, 230 nM; in data set [4], 230 nM; at Integrin alpha-5/beta-1 [5], 97 nM. Besides, the results for the “Drug uptake(free)” value in the data set listed under Homo sapiens and in the data set listed under Rattus norvegicus were 1% and 1.1%, respectively. Moreover, the Ratio IC50 in the data set with A375M was 2.3.
